EC50 and IC50 data for 27 compounds are collected here from patent US9115151B2, “Substituted 2,10-dihydro-9-oxa-1,2,4A-triazaphenanthren-3-ones and uses thereof” (AbbVie Inc., priority 2012, dated 2015).

The subject of assay [1] is CD3/CD28 induced IL-2 in human T-Blasts. Description: T-Blasts CD3/CD28 induced IL-2 assay. It is filed as cell-based. The following applies: read-out: CD3/CD28-stimulated IL2 in T-blasts EC50. The method, boiled down: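 PHA-generated human T-blasts, 2×10^5 per well, preincubated 30 min with 8-point 1/3 compound dilutions in duplicate, then stimulated with anti-CD3+anti-CD28 (5 μg/mL final) for 24 h at 37° C. Supernatant IL-2 measured; MTT toxicity run on remaining cells.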

For assay [2], the target named is T1, PKCθ (Homo sapiens, UniProt Q04759).
T1 construct: His6; purchased Millipore; host or cells: baculovirus in Sf21 cells
Description: In vitro enzyme assay (time-resolved fluorescence kinase assay), PKCθ, 100 μM ATP. In kind it is biochemical. The gist of the method: (§1)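 Read-out was time-resolved fluorescence, corrected for a minus-enzyme blank and converted to percent activity relative to enzyme without drug. They were stopped with EDTA.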

In assay [3] the target is T2, PKCα (Homo sapiens, UniProt P17252).
T2 construct: His6; purchased Millipore; host or cells: baculovirus in Sf21 cells
Briefly: In vitro enzyme assay (time-resolved fluorescence kinase assay), PKCα, 100 μM ATP. In kind it is biochemical. The settings on record: 100 μM ATP; read-out: PKCα enzyme IC50. The method, boiled down:
as §1

T1 sequence (Q04759 whole entry): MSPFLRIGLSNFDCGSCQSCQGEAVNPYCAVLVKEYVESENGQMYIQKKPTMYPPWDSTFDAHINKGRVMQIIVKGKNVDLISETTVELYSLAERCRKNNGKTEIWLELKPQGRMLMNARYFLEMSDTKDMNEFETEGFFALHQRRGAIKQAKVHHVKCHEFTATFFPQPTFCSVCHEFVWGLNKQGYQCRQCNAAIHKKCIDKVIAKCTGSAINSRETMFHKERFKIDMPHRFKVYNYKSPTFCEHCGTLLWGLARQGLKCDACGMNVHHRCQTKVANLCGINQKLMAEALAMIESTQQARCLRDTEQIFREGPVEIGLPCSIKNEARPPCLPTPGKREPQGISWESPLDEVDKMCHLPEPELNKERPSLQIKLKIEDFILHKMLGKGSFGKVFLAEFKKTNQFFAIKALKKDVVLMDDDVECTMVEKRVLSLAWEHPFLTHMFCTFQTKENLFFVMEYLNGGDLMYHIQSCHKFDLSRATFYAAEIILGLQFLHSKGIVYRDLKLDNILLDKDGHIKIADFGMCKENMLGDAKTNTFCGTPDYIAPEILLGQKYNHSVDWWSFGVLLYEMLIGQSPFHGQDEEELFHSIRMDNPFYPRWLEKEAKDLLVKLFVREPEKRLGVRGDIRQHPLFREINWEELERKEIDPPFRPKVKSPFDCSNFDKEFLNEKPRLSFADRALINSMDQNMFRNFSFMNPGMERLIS

As usually defined, the IC50 is the point on the concentration scale where inhibition reaches its midpoint. For `C[C@@H]1C(=O)NN=C2COc3cc(C4=CCC(F)(F)CC4)c(C4CCNCC4)cc3N21` [Example 211], in assay [1], the EC50 fell in the range of 250 to 1000 nM. In addition, the half-inhibitory concentration (IC50) in assay [2] is less than 250 nM; in assay [3] it was 1000 to 10000 nM.
For `C[C@@H]1C(=O)NN=C2COc3cc(-c4c(F)cccc4F)c(C4CCNCC4)cc3N21` [Example 213], in that order: less than 250 nM, less than 250 nM and 1000 to 10000 nM.
For `C[C@@H]1C(=O)NN=C2COc3cc(-c4ccccc4F)c([C@H]4CCNC4)cc3N21` [Example 214], in that order: less than 250 nM, less than 250 nM and 1000 to 10000 nM.
In the same order, the values of `C[C@@H]1C(=O)NN=C2COc3cc(-c4ccccc4F)c([C@@H]4CCNC4)cc3N21` [Example 215] are less than 250 nM, less than 250 nM and 1000 to 10000 nM.
Consider `C[C@@H]1C(=O)NN=C2COc3cc(-c4ccccc4F)c([C@H]4CCCNC4)cc3N21` [Example 216], for which, in assay [1], the EC50 was in the range of 250 to 1000 nM. The IC50 is less than 250 nM in assay [2] and 1000 to 10000 nM in assay [3].
In the same order, the values of `C[C@@H]1C(=O)NN=C2COc3cc(-c4ccccc4F)c([C@H]4CCCNCC4)cc3N21` [Example 217] are 250 to 1000 nM, less than 250 nM and 1000 to 10000 nM.
For `C[C@@H]1C(=O)NN=C2COc3cc(-c4ccccc4F)c([C@@H]4CCCNCC4)cc3N21` [Example 218], in that order: 250 to 1000 nM, less than 250 nM and 1000 to 10000 nM.
Consider `CC(C)c1cc2c(cc1C1CCN(C)CC1)N1C(=NNC(=O)[C@H]1C)CO2` [Example 219], for which the EC50 in assay [1] is less than 250 nM. The IC50 in assay [2] was less than 250 nM; in assay [3], 1000 to 10000 nM.
On to `C[C@@H]1C(=O)NN=C2COc3cc(-c4ccccc4F)c(N4CCNCC4)cc3N21` [Example 222, (R)-7-(2-Fluoro-phenyl)-4-methyl-6-piperazin-1-yl-2,10-dihydro-9-oxa-1,2,4a-triaza-phenanthren-3-one], for which the EC50 in assay [1] fell in the range of 250 to 1000 nM. Besides, the IC50 in assay [2] is less than 250 nM; in assay [3], 1000 to 10000 nM.
For `C[C@@H]1CNCCN1c1cc2c(cc1-c1ccccc1F)OCC1=NNC(=O)[C@@H](C)N12` [Example 223], in that order: less than 250 nM, less than 250 nM and 250 to 1000 nM.
For `C[C@@H]1C(=O)NN=C2COc3cc(-c4ccccc4F)c(N4CCNC[C@@H]4C)cc3N21` [Example 224], in that order: less than 250 nM, less than 250 nM and 250 to 1000 nM.
For `C[C@@H]1C(=O)NN=C2COc3cc(-c4ccccc4F)c(N4CCN[C@@H](C)C4)cc3N21` [Example 225], in that order: less than 250 nM, less than 250 nM and 250 to 1000 nM.
As for `CC[C@@H]1CNCCN1c1cc2c(cc1-c1ccccc1F)OCC1=NNC(=O)[C@@H](C)N12` [Example 226], the EC50 in assay [1] lay in the range of 250 to 1000 nM. For the same compound, the values for the IC50 in assay [2] and in assay [3] were less than 250 nM and 250 to 1000 nM, respectively.
As to `CC[C@H]1CNCCN1c1cc2c(cc1-c1ccccc1F)OCC1=NNC(=O)[C@@H](C)N12` [Example 227], the EC50 in assay [1] lay in the range of 250 to 1000 nM. The values for the IC50 in assay [2] and in assay [3] were less than 250 nM and 1000 to 10000 nM, respectively.
`C[C@@H]1C(=O)NN=C2COc3cc(-c4ccccc4F)c(N4[C@@H]5CC[C@H]4CNC5)cc3N21` [Example 228]: in assay [1], the EC50 was 250 to 1000 nM. The IC50 in assay [2] was less than 250 nM; in assay [3] it was 250 to 1000 nM.
In the case of `C[C@@H]1CN(C)CCN1c1cc2c(cc1-c1ccccc1F)OCC1=NNC(=O)[C@@H](C)N12` [Example 230], the EC50 in assay [1] was less than 250 nM. The IC50 in assay [2] was less than 250 nM; in assay [3], 250 to 1000 nM.
Consider `C[C@@H]1C(=O)NN=C2COc3cc(-c4ccccc4F)c(N4CCN(C)C[C@@H]4C)cc3N21` [Example 231], for which the EC50 in assay [1] was less than 250 nM. Moreover, the IC50 is less than 250 nM in assay [2] and 250 to 1000 nM in assay [3].
With `C[C@@H]1C(=O)NN=C2COc3cc(-c4ccccc4F)c(N4CCN(C)[C@@H](C)C4)cc3N21` [Example 232], the EC50 in assay [1] was less than 250 nM. Also, the figures for the IC50 in assay [2] and in assay [3] were less than 250 nM and 250 to 1000 nM, respectively.
As for `CC[C@@H]1CN(C)CCN1c1cc2c(cc1-c1ccccc1F)OCC1=NNC(=O)[C@@H](C)N12` [Example 233], in assay [1], the EC50 is less than 250 nM. Also, the concentration for half-maximal inhibition (IC50) is less than 250 nM in assay [2] and 250 to 1000 nM in assay [3].
For `CC[C@H]1CN(C)CCN1c1cc2c(cc1-c1ccccc1F)OCC1=NNC(=O)[C@@H](C)N12` [Example 234], the EC50 in assay [1] is 250 to 1000 nM. The IC50 in assay [2] was less than 250 nM; in assay [3], 1000 to 10000 nM.
In the same order, the values of `C[C@@H]1C(=O)NN=C2COc3cc(-c4ccccc4F)c(N4[C@@H]5CC[C@H]4CN(C)C5)cc3N21` [Example 235] are 250 to 1000 nM, less than 250 nM and 250 to 1000 nM.
Turning to `CC1C(=O)NN=C2COc3cc(-c4ccccc4F)c(N4CC5CCC4CN5C)cc3N21` (stereo not drawn) [Example 236], in assay [1], the EC50 lay in the range of 1000 to 10000 nM. The half-maximal inhibitory concentration (IC50) in assay [2] was less than 250 nM; in assay [3], 1000 to 10000 nM.
As to `C[C@@H]1C(=O)NN=C2COc3cc(-c4ccc(F)cc4F)c([C@@H]4CCN(C)C[C@@H]4C)cc3N21` [Example 238], in assay [1], the EC50 was less than 250 nM. For the same compound, the IC50 in assay [2] and in assay [3] was less than 250 nM each time.
Consider `CC(C)c1cc2c(cc1[C@@H]1CCN(C)C[C@@H]1C)N1C(=NNC(=O)[C@H]1C)CO2` [Example 244], for which, in assay [1], the EC50 is less than 250 nM. Further, the IC50 is less than 250 nM in assay [2] and 250 to 1000 nM in assay [3].
Regarding `C[C@@H]1CN(C)[C@@H](C)CN1c1cc2c(cc1-c1ccccc1F)OCC1=NNC(=O)[C@@H](C)N12` [Example 246, (R)-7-(2-Fluoro-phenyl)-4-methyl-6-((2R,5S)-2,4,5-trimethyl-piperazin-1-yl)-2,10-dihydro-9-oxa-1,2,4a-triaza-phenanthren-3-one], in assay [1], the EC50 was less than 250 nM. For the same compound, the IC50 is less than 250 nM in assay [2] and 250 to 1000 nM in assay [3].
With `C[C@@H]1C(=O)NN=C2COc3cc(-c4ccccc4F)c(N4C[C@H](C)N(C)C[C@@H]4C)cc3N21` [Example 247], the EC50 in assay [1] was less than 250 nM. Moreover, the IC50 in assay [2] and in assay [3] was less than 250 nM in each case.
Consider `CC1C(=O)NN=C2COc3cc4ccn(C5CN(C)C5)c4cc3N21` (stereo not drawn) [compound 161], for which the EC50 in assay [1] was in the range of 250 to 1000 nM. The IC50 is less than 250 nM in assay [2] and 1000 to 10000 nM in assay [3].
